Source: patent publication US10221163B2 (priority 2015, dated 2019)
Where two headings read alike, the source gives them in different places.

Experiments:
VIM-1 = VIM-1 (Pseudomonas aeruginosa (strain ATCC 15692 / DSM 22644 / CIP 104116 / JCM 14847 / LMG 12228 / 1C / PRS 101 / PAO1), UniProt A0A0F7KYQ8); assay: biochemical; conditions: CCF2-FA substrate, 30 pM enzyme, 2 hours at 25° C.
Method in brief: (§1)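 Fluorescence assay of metallo-β-lactamase activity using CCF2-FA, a cephalosporin-linked 7-hydroxycoumarin–fluorescein substrate. Inhibitor, enzyme and substrate were incubated together for 2 hours at 25° C. IC50 came from a 4-parameter fit of inhibition versus inhibitor concentration.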

IMP-1 = IMP-1 (Serratia marcescens, UniProt P52699); assay: biochemical; type: biochemical; conditions: fluorescence assay, CCF2-FA substrate, 2 pM enzyme, 2 hours at 25° C.; read-out: IMP-1 IC50
Method in brief: as §1

NDM-1 = NDM-1 (Klebsiella pneumoniae, UniProt C7C422); assay: biochemical; type: biochemical; conditions: fluorescence assay, CCF2-FA substrate, 1 pM enzyme, 2 hours at 25° C.; read-out: NDM-1 IC50
Method in brief: as §1

[1] = system: Pseudomonas aeruginosa MB9798 vs MB9799; conditions: ratio MITC95 PA_9798/MITC95 PA_9799
Method in brief: (§2)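 P. aeruginosa PAO1-derived IMP-1 strains, efflux+ MB9798 and efflux− MB9799, tested by standard microbroth MIC with imipenem and/or ceftazidime fixed, usually at CLSI breakpoint, plus fixed class A/C β-lactamase inhibitor against AmpC. Inhibitor titrated; concentration restoring susceptibility recorded; MB9798/MB9799 fold difference indicates efflux.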

[2] = system: Pseudomonas aeruginosa efflux− (MB9799), IMP-1; type: cell-based; conditions: concentration restoring susceptibility to imipenem at 2 μg/mL in the presence of a class A, C, D serine β-lactamase inhibitor closely related to relebactam
Method in brief: as §2

[3] = system: Escherichia coli expressing NDM-1 (CLB30005, CLB30016); type: cell-based; conditions: with imipenem 1 μg/ml; 95% inhibition of bacterial growth
Method in brief: (§3)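 Imipenem 1 μg/ml + inhibitor; MBL-expressing clinical strains in 1.1×CAMHB, inoculum from saline suspension diluted 1:100; 35° C, 22–24 h; absorbance read-out.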

[4] = system: Serratia marcescens expressing IMP-1 (CL5741); type: cell-based; conditions: with imipenem 1 μg/ml; 95% inhibition of bacterial growth
Method in brief: as §3

[5] = system: Klebsiella pneumoniae expressing VIM-1 (IHMA599644); type: cell-based; conditions: with imipenem 1 μg/ml; 95% inhibition of bacterial growth
Method in brief: as §3

[6] = system: Pseudomonas aeruginosa efflux+ (MB9798), IMP-1; type: cell-based; conditions: concentration restoring susceptibility to imipenem at 2 μg/mL in the presence of a class A, C, D serine β-lactamase inhibitor closely related to relebactam
Method in brief: as §2

Chain of IMP-1 (P52699 whole entry, looked up, species assumed): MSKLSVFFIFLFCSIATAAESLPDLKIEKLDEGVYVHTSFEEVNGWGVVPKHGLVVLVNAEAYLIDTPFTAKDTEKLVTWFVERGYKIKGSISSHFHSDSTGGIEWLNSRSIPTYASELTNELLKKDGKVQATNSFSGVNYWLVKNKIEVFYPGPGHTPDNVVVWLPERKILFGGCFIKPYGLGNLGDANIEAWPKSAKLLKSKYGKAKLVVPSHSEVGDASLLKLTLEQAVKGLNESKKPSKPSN
Chain of NDM-1 (C7C422 whole entry, looked up, species assumed): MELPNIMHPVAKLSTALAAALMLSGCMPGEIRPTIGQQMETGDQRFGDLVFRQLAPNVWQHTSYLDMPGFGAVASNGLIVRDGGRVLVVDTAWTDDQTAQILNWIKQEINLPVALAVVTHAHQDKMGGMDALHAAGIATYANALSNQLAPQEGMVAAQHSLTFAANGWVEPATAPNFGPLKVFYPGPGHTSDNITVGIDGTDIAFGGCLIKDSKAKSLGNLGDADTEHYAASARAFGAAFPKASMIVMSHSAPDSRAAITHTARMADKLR

SMILES	IC50 (VIM-1; fluorescence assay, read-out: VIM-1 IC50) [nM]	IC50 (IMP-1) [nM]	IC50 (NDM-1) [nM]	Efflux ratio [1]	P. aeruginosa expressing IMP-1, efflux − (MB9799) MITC95 [2] [µM]	Escherichia coli expressing NDM-1 (CLB30016) MITC95 [3] [µM]	Serratia marcescens expressing IMP-1 (CL5741) MITC95 [4] [µM]	Klebsiella pneumoniae expressing VIM-1 (IHMA599644) MITC95 [5] [µM]	P. aeruginosa expressing IMP-1, efflux + (MB9798) MITC95 [6] [µM]	IC50 (VIM-1; VIM-1 IC50, fluorescence assay) [nM]
Cn1c(N)nc2c(-c3ccc(S(=O)(=O)N[C@@H]4CCNC4)c(S(N)(=O)=O)c3-c3nn[nH]n3)cccc21 [Example 164, 4-(2-amino-1-methyl-1H-benzo[d]imidazol-4-yl)-N^1-((R)-pyrrolidin-3-yl)-3-(2H-tetrazol-5-yl)benzene-1,2-disulfonamide]	0.105	0.272	0.0378	1.00	0.7813	0.3906	0.7813	0.7813	0.7813	–
NC1CCC(c2ccc(S(N)(=O)=O)c(S(N)(=O)=O)c2-c2nnn[nH]2)CC1 (stereo not drawn) [Example 165, 4-(4-aminocyclohexyl)-3-(1H-tetrazol-5-yl)benzene-1,2-disulfonamide]	–	24.4	17.7	4.00	1.563	0.3906	1.563	3.125	6.25	1.17
C[N+]1(C)CC[C@H](NS(=O)(=O)c2ccc(-c3cccc4[nH]c(N)nc34)c(-c3nn[n-]n3)c2S(N)(=O)=O)C1 [Example 166, (S)-5-(6-(2-amino-1H-benzo[d]imidazol-4-yl)-3-(N-(1,1-dimethylpyrrolidin-1-ium-3-yl)sulfamoyl)-2-sulfamoylphenyl)tetrazol-2-ide]	–	0.82	0.0581	[…]	1.563	0.7813	1.563	3.125	1.563	[…]
Cn1c(N)nc2c(-c3ccc(S(=O)(=O)N[C@H]4CC[N+](C)(C)C4)c(S(N)(=O)=O)c3-c3nn[n-]n3)cccc21 [Example 167, (S)-5-(6-(2-amino-1-methyl-1H-benzo[d]imidazol-4-yl)-3-(N-(1,1-dimethylpyrrolidin-1-ium-3-yl)sulfamoyl)-2-sulfamoylphenyl)tetrazol-2-ide]	–	0.346	0.0591	2.00	1.563	1.563	1.563	3.125	3.125	0.169
Nc1nc2c(-c3ccc(S(=O)(=O)N[C@H]4CNC[C@H]4O)c(S(N)(=O)=O)c3-c3nnn[nH]3)cccc2[nH]1 [Example 168, 4-(2-amino-1H-benzo[d]imidazol-4-yl)-N^1-((3S,4R)-4-hydroxypyrrolidin-3-yl)-3-(1H-tetrazol-5-yl)benzene-1,2-disulfonamide]	–	0.544	0.0515	0.70	0.543	0.375	0.668	0.8906	0.3828	0.16
Nc1nc2c(-c3ccc(S(=O)(=O)N[C@H]4CNC[C@@H]4O)c(S(N)(=O)=O)c3-c3nnn[nH]3)cccc2[nH]1 [Example 169, 4-(2-amino-1H-benzo[d]imidazol-4-yl)-N^1-((3S,4S)-4-hydroxypyrrolidin-3-yl)-3-(1H-tetrazol-5-yl)benzene-1,2-disulfonamide]	–	2.08	0.137	1.00	1.563	0.7813	1.563	3.125	1.563	0.581
Nc1nc2c(-c3ccc(S(=O)(=O)N[C@@H]4CNC[C@@H]4O)c(S(N)(=O)=O)c3-c3nnn[nH]3)cccc2[nH]1 [Example 170, 4-(2-amino-1H-benzo[d]imidazol-4-yl)-N^1-((3R,4S)-4-hydroxypyrrolidin-3-yl)-3-(1H-tetrazol-5-yl)benzene-1,2-disulfonamide]	–	1.12	0.0803	1.00	0.7813	0.7813	0.7813	1.563	0.7813	0.257
Nc1nc2c(-c3ccc(S(=O)(=O)N[C@@H]4CNC[C@H]4O)c(S(N)(=O)=O)c3-c3nnn[nH]3)cccc2[nH]1 [Example 171, 4-(2-amino-1H-benzo[d]imidazol-4-yl)-N^1-((3R,4R)-4-hydroxypyrrolidin-3-yl)-3-(1H-tetrazol-5-yl)benzene-1,2-disulfonamide]	–	1.39	0.125	0.50	1.563	0.7813	1.563	3.125	0.7813	0.506
Nc1nc2c(-c3ccc(S(=O)(=O)N[C@H]4CN[C@H](CO)C4)c(S(N)(=O)=O)c3-c3nnn[nH]3)cccc2[nH]1 [Example 172, 4-(2-amino-1H-benzo[d]imidazol-4-yl)-N^1-((3R,5S)-5-(hydroxymethyl)pyrrolidin-3-yl)-3-(1H-tetrazol-5-yl)benzene-1,2-disulfonamide]	–	0.509	0.05	0.50	0.7813	0.5859	0.7813	1.563	0.3906	0.159
Nc1nc2c(-c3ccc(S(=O)(=O)N[C@H]4CN[C@@H](CO)C4)c(S(N)(=O)=O)c3-c3nnn[nH]3)cccc2[nH]1 [Example 173, 4-(2-amino-1H-benzo[d]imidazol-4-yl)-N^1-((3R,5R)-5-(hydroxymethyl)pyrrolidin-3-yl)-3-(1H-tetrazol-5-yl)benzene-1,2-disulfonamide]	–	0.933	0.0948	1.00	1.563	0.7813	0.7813	3.125	1.563	0.284
